Patent US4812409A, “Hydrolyzable fluorescent substrates and analytical determinations using same” (Eastman Kodak Company, priority 1986, dated 1989)

How the values were obtained:
carboxylesterase, Type I = assay: Determination of hydrolytic enzymes: carboxylesterase Type I; assay type: biochemical; settings: pH 7.8, 25° C., ex 540 nm, em 595 nm
Experimental: (§1) Test solutions were prepared with the following: 50 μl of substrate (1 mg/μl methanol), […] of 0.05 molar potassium phosphate buffer at the indicated pH (near the optimum for each enzyme) and 10 μl of enzyme. Enzymes to be determined included carboxylesterase, Type I (pH 7.8) and Type II (pH 6.0), aminoacylase, Grade I (pH 7.0), and trypsin, Type I and III (pH 7.8). Sample preparations and testing were done in an area protected from light. The enzyme solutions were kept at 0° C. prior to use, and assays were run at 25° C. with fluorescence measured at an excitation of 540 nm and an emission of 595 nm.

[1] = tested on: carboxylesterase, Type II; assay: Determination of hydrolytic enzymes: carboxylesterase Type II; assay type: biochemical; settings: Final Enzyme Activity 15 I.U., pH 6.0, 25° C., ex 540 nm, em 595 nm
Experimental: as §1

aminoacylase, Grade I = target: T1, aminoacylase, Grade I (Sus scrofa, UniProt P37111); assay: Determination of hydrolytic enzymes: aminoacylase Grade I; assay type: biochemical; settings: Final Enzyme Activity 3,000 I.U., pH 7.0, 25° C., ex 540 nm, em 595 nm
T1 sequence (P37111 2-407 limits assumed): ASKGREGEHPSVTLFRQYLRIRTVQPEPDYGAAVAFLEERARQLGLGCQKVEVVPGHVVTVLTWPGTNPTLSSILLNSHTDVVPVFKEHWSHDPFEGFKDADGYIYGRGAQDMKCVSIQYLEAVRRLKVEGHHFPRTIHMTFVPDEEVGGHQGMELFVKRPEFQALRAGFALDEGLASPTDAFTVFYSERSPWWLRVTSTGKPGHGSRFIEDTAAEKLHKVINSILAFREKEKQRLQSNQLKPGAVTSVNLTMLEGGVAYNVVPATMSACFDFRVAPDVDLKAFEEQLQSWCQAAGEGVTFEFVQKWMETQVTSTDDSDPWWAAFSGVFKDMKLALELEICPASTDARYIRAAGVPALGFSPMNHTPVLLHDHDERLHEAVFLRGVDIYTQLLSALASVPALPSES
Experimental: as §1

trypsin, Type I = target: T2, trypsin, Type I (Bos taurus, UniProt P00760); assay: Determination of hydrolytic enzymes: trypsin Type I; assay type: biochemical; settings: pH 7.8, 25° C., ex 540 nm, em 595 nm
T2 sequence (P00760 24-246): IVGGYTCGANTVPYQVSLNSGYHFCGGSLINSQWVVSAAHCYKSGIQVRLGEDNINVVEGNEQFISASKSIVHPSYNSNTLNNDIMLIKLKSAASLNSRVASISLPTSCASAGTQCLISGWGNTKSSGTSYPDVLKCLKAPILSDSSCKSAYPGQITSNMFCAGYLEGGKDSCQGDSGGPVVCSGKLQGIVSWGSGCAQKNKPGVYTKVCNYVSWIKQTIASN
Experimental: as §1

trypsin, Type III = target: T3, trypsin, Type III (Bos taurus, UniProt P00760); assay: Determination of hydrolytic enzymes: trypsin Type III; assay type: biochemical; settings: pH 7.8, 25° C., ex 540 nm, em 595 nm
T3 sequence (P00760 24-246): T2 sequence (P00760 24-246)
Experimental: as §1

[2] = tested on: Enterobacter cloacae (ATCC 23355); assay: Detection of Enterobacter cloacae with β-D-xylosidase substrate, fluorescence; assay type: cell-based; settings: for Relative Fluorescence: 37° C., ex 540 nm, em 620 nm
Experimental: (§2) Cells were prepared as follows. A β-D-xylosidase induction medium was prepared by adding the following materials in order to 350 μl of 0.1 molar sodium, potassium phosphate buffer (pH 7.0), 25 μl 5% yeast extract, 50 μl of 4% (NH4)2 HPO4 and 1% KCl, 50 μl 0.0075% MnSO4.H2 O and 0.01% FeSO4.7H2 O. This mixture was autoclaved for 30 minutes, then cooled. Just before incubation, 25 μl of 20% xylose solution and 2% MgSO4.7H2 O, which had been filter sterilized or autoclaved separately, were added. Klebsiella pneumoniae (ATCC 13882) and Enterobacter cloacae (ATCC 23355) were both grown in this medium for 18 hours at 37° C. Ten milliliters of cells were harvested by centrifugation, washed, and resuspended in 0.1 molar potassium phosphate buffer (pH 7.0). The cell concentration was adjusted to approximately 5×10^8 cells/ml (optical density 0.800 at 620 nm).
(§3) In two milliliters HA 96 well titration plates were placed 200 μl of the cell suspension. To plate 1 was added 100 μl of the substrate solution of Example 1 without surfactant (10 μg/μl N,N-dimethylformamide in 9 μl potassium phosphate buffer), to plate 2 was added the substrate solution with surfactant (10 μg/μl N,N-dimethylformamide and 200 μl TRITON X-100 surfactant in 9 μl potassium phosphate buffer).
(§4) After the substrate was added, an initial reading was taken, the plates were kept at 37° C., and additional readings were taken after 5, 10, 15, 30, and 60 minutes. The average of three replicates was used. A commercially available Dynatech Microfluor Reader, modified with an excitation filter at 540 nm, an emission filter at 620 nm, a 200-watt tungsten lamp and a heating element, was used to measure fluorescence.

[3] = tested on: Klebsiella pneumoniae (ATCC 13882); assay: Detection of Klebsiella pneumoniae with β-D-xylosidase substrate, fluorescence; assay type: cell-based; settings: for Relative Fluorescence: 37° C., ex 540 nm, em 620 nm
Experimental: as §2, §3, §4

[4] = Millititer Plate 1, without surfactant, 0 min
[5] = Millititer Plate 1, without surfactant, 5 min
[6] = Millititer Plate 1, without surfactant, 10 min
[7] = Millititer Plate 1, without surfactant, 15 min
[8] = Millititer Plate 1, without surfactant, 30 min
[9] = Millititer Plate 1, without surfactant, 60 min
[10] = Millititer Plate 2, with TRITON X-100 surfactant, 0 min
[11] = Millititer Plate 2, with TRITON X-100 surfactant, 5 min
[12] = Millititer Plate 2, with TRITON X-100 surfactant, 10 min
[13] = Millititer Plate 2, with TRITON X-100 surfactant, 15 min
[14] = Millititer Plate 2, with TRITON X-100 surfactant, 30 min
[15] = Millititer Plate 2, with TRITON X-100 surfactant, 60 min
[16] = both substrate solutions (with and without surfactant)

## CC(=O)Nc1ccc2c3c(cccc13)C(=O)C=C2 [Example 5]
carboxylesterase, Type I; Final Enzyme Activity 9.6 I.U., 0 Min
  Relative Fluorescence (minus control with no enzyme): 2.7
carboxylesterase, Type I; Final Enzyme Activity 9.6 I.U., 10 Min
  Relative Fluorescence (minus control with no enzyme): 3.6
carboxylesterase, Type I; Final Enzyme Activity 9.6 I.U., 15 Min
  Relative Fluorescence (minus control with no enzyme): 4.1
carboxylesterase, Type I; Final Enzyme Activity 9.6 I.U., 30 Min
  Relative Fluorescence (minus control with no enzyme): 4.4
carboxylesterase, Type I; Final Enzyme Activity 96 I.U., 0 Min
  Relative Fluorescence (minus control with no enzyme): 3.0
carboxylesterase, Type I; Final Enzyme Activity 96 I.U., 10 Min
  Relative Fluorescence (minus control with no enzyme): 6.1
carboxylesterase, Type I; Final Enzyme Activity 96 I.U., 15 Min
  Relative Fluorescence (minus control with no enzyme): 7.9
carboxylesterase, Type I; Final Enzyme Activity 96 I.U., 30 Min
  Relative Fluorescence (minus control with no enzyme): 12.5
[1]; 0 Min
  Relative Fluorescence (minus control with no enzyme): 2.0
[1]; 10 Min
  Relative Fluorescence (minus control with no enzyme): 5.4
[1]; 15 Min
  Relative Fluorescence (minus control with no enzyme): 8.0
[1]; 30 Min
  Relative Fluorescence (minus control with no enzyme): 15.8
aminoacylase, Grade I; 0 Min
  Relative Fluorescence (minus control with no enzyme): 1.5
aminoacylase, Grade I; 10 Min
  Relative Fluorescence (minus control with no enzyme): 2.0
aminoacylase, Grade I; 15 Min
  Relative Fluorescence (minus control with no enzyme): 2.1
aminoacylase, Grade I; 30 Min
  Relative Fluorescence (minus control with no enzyme): 2.3
trypsin, Type I; Final Enzyme Activity 5,000 I.U., 0 Min
  Relative Fluorescence (minus control with no enzyme): 0
trypsin, Type I; Final Enzyme Activity 5,000 I.U., 10 Min
  Relative Fluorescence (minus control with no enzyme): 0.5
trypsin, Type I; Final Enzyme Activity 5,000 I.U., 15 Min
  Relative Fluorescence (minus control with no enzyme): 0.6
trypsin, Type I; Final Enzyme Activity 5,000 I.U., 30 Min
  Relative Fluorescence (minus control with no enzyme): 0.8
trypsin, Type I; Final Enzyme Activity 50,000 I.U., 0 Min
  Relative Fluorescence (minus control with no enzyme): 0
trypsin, Type I; Final Enzyme Activity 50,000 I.U., 10 Min
  Relative Fluorescence (minus control with no enzyme): 0.7
trypsin, Type I; Final Enzyme Activity 50,000 I.U., 15 Min
  Relative Fluorescence (minus control with no enzyme): 0.9
trypsin, Type I; Final Enzyme Activity 50,000 I.U., 30 Min
  Relative Fluorescence (minus control with no enzyme): 1.5
trypsin, Type III; Final Enzyme Activity 6,000 I.U., 0 Min
  Relative Fluorescence (minus control with no enzyme): 2.7
trypsin, Type III; Final Enzyme Activity 6,000 I.U., 10 Min
  Relative Fluorescence (minus control with no enzyme): 2.8
trypsin, Type III; Final Enzyme Activity 6,000 I.U., 15 Min
  Relative Fluorescence (minus control with no enzyme): 3.0
trypsin, Type III; Final Enzyme Activity 6,000 I.U., 30 Min
  Relative Fluorescence (minus control with no enzyme): 3.6
trypsin, Type III; Final Enzyme Activity 60,000 I.U., 0 Min
  Relative Fluorescence (minus control with no enzyme): 2.2
trypsin, Type III; Final Enzyme Activity 60,000 I.U., 10 Min
  Relative Fluorescence (minus control with no enzyme): 3.5
trypsin, Type III; Final Enzyme Activity 60,000 I.U., 15 Min
  Relative Fluorescence (minus control with no enzyme): 3.4
trypsin, Type III; Final Enzyme Activity 60,000 I.U., 30 Min
  Relative Fluorescence (minus control with no enzyme): 4.3

## O=C1C=Cc2ccc(O[C@@H]3OC[C@@H](O)[C@H](O)[C@H]3O)c3cccc1c23 [Example 1, 1-(6-Oxyphenalenone)-β-D-xylopyranose]
[2]; [4]
  Relative Fluorescence: 525
[2]; [5]
  Relative Fluorescence: 684
[2]; [6]
  Relative Fluorescence: 925
[2]; [7]
  Relative Fluorescence: 1150
[2]; [8]
  Relative Fluorescence: 2245
[2]; [9]
  Relative Fluorescence: 2717
[2]; [10]
  Relative Fluorescence: 586
[2]; [11]
  Relative Fluorescence: 902
[2]; [12]
  Relative Fluorescence: 1341
[2]; [13]
  Relative Fluorescence: 1795
[2]; [14]
  Relative Fluorescence: 2626
[2]; [15]
  Relative Fluorescence: 3003
[2]; [16]
  Time at which the microorganism can be detected: 15 min
[3]; [4]
  Relative Fluorescence: 500
[3]; [5]
  Relative Fluorescence: 585
[3]; [6]
  Relative Fluorescence: 698
[3]; [7]
  Relative Fluorescence: 752
[3]; [8]
  Relative Fluorescence: 1205
[3]; [9]
  Relative Fluorescence: 1686
[3]; [10]
  Relative Fluorescence: 557
[3]; [11]
  Relative Fluorescence: 635
[3]; [12]
  Relative Fluorescence: 741
[3]; [13]
  Relative Fluorescence: 869
[3]; [14]
  Relative Fluorescence: 1232
[3]; [15]
  Relative Fluorescence: 1976
[3]; [16]
  Time at which the microorganism can be detected: 15 min
